Legend:
[1] = system: human corneal epithelial cells; test: WST-1 cell viability assay under oxidative stress (H2O2 100 µM, 24 hours); format: cell-based; details: H2O2 group 79 ± 14%, untreated control 100 ± 3%
Description: (§1) Human corneal epithelial cells (hCEC; SCCE016; Merck Millipore, Burlington, MA, USA) were cultured in corneal epithelial cell growth medium with supplement mix (LGC Standards, Teddington, United Kingdom). Approximately 10,000 hCECs were seeded onto each well of a 96-well cell-culture dishes (NUNC, Langenselbold, Germany). Confluent cells were used for Water-soluble tetrazolium salt (WST-1) cell proliferation assays (Hoffmann-La Roche AG, Basel, Switzerland). After 24 hours of incubation with 100 µl of corneal epithelial cell growth medium without its' supplement mix (LGC Standards, Teddington, United Kingdom), hCECs were treated with different concentrations of astragaloside IV (AIV; Selleckchem, Houston, TX, USA) dissolved in dimethyl sulfoxide (DMSO; Carl Roth AG, Karlsruhe, Germany). Control groups were treated with DMSO only. Following another 72 hours of incubation, the cells were incubated with the WST-1 solution for 30 minutes. Substrate turnover was measured with an ELISA reader at 450 nm (Spectramax 190; Molecular Devices, Sunnyvale, CA, USA) and a reference at 690 nm.
To determine potential anti-oxidative effects of astragaloside IV, hCECs were incubated and treated analogous to the above-mentioned WST-1 cell proliferation assay with minor modifications. […]

[2] = system: bovine corneas; test: Corneal erosion assay ex vivo (epithelial wound healing), follow-up 72 hours; details: 1 µM or 2.5 µM, every 12 hours up to 72 hours, versus DMSO-treated control, p > 0.05 for all groups
Description: Furthermore, corneal epithelial cell wound healing was determined on bovine corneas ex vivo. Bovine globes were obtained from a local butchery following approval by the authority for waste management of animal carcasses (ID: DE 09 162 0066-219) and processed within 12 hours post-mortem. The bovine globes were washed in 10% w/v povidone-iodine for 5 minutes. A circular corneal epithelial erosion was created using an 8 mm trephine and a hockey knife (Katena Products Inc., Parsippany, NJ, USA). Subsequently, a sclerocorneal ring was excised with eye scissors (Katena Products Inc., Parsippany, NJ, USA) and transferred to a 60 mm cell culture plate. To acquire reference images of the corneal erosion, the wound area was stained with a 0.8 mg/ml fluorescein sodium solution and illuminated with blue light (approximate wavelength 490 nm). Images were acquired using a distance-fixed digital single lens reflex camera equipped with a macro lens (Canon Inc., Tokyo, Japan). Consequently, the sclerocorneal rings were incubated in Dulbecco's Modified Eagle's Medium (Bio&SELL GmbH, Feucht, Germany) supplemented with 50 IU penicillin/ml and 50 µg streptomycin/ml (Merck Millipore, Burlington, MA, USA) and astragaloside IV or DMSO only. Follow-up images were acquired every 12 hours, the cell culture medium was renewed daily.

[3] = system: hCEC; test: BrdU ELISA cell proliferation assay, 24 hours of treatment; format: cell-based; details: Homo sapiens, compared to DMSO-treated control, mean ± standard deviation
Description: Proliferation of hCEC was determined using a 5-bromo-2'-deoxyuridine (BrdU) ELISA in accordance with the manufacturers' recommendations (Merck KGaA, Darmstadt, Germany). In brief, approximately 7,000 cells were seeded onto a 96-well cell culture plate and incubated for 24h to achieve complete adherence of the cells. After 24 hours of incubation with 100 µl of corneal epithelial cell growth medium without its' supplement mix, hCECs were treated with astragaloside IV dissolved in DMSO. Following another 24 hours of incubation with BrdU labeling solution, cells were fixed and incubated with anti-BrdU antibodies according to the manufacturer's recommendations. BrdU incorporation into the DNA of hCECs was quantified by absorbance measurement at 450 nm using the ELISA reader Spectramax 190 (Molecular Devices, Sunnyvale, CA, USA).

[4] = system: hCEC; test: Cell scratch assay (migration / wound healing in vitro), follow-up up to 72 hours; format: cell-based, Human; details: 1 µM, 2.5 µM; follow-up of 72 hours; versus DMSO-only control; p > 0.05 for all groups
Description: To analyze hCEC migration in vitro, cells were cultured in corneal epithelial cell growth medium with supplement mix until confluence of the cells of a 6-well cell culture plate. Following an incubation period of 24 hours in cell culture medium without supplements, 5 linear scratches were performed in each well using a 200 µl pipette tip (Eppendorf AG, Hamburg, Germany). The hCECs were then incubated prospectively under treatment with astragaloside IV or DMSO as a control for up to 72 hours. Reference images were acquired at the beginning of the incubation period using the phase contrast mode on an Axio Observer 7 (Carl Zeiss AG, Jena, Germany). Every 24 hours, follow-up images of 4-5 different scratch sections were acquired. The size of the wound area was analyzed using a semi-automated analysis tool in ImageJ 1.53a (National Institute of Health, Bethesda, MD, USA).

[5] = system: Human corneal epithelial cells (hCEC); test: WST-1 cell viability assay, 72 hours of treatment; format: cell-based; details: DMSO-treated control 100 ± 9%, mean ± standard deviation
Description: as §1

[6] = system: Intracellular, mitochondrial reactive oxygen species (ROS); test: Dihydrorhodamine-123 (DHR-123) fluorescence assay of ROS under oxidative stress (H2O2, 2 hours); format: cell-based; details: Homo sapiens, HCEC, hCECs, percent of DMSO control, H2O2 group 149 ± 9%, p = 0.0006 vs H2O2
Description: Intracellular, mitochondrial reactive oxygen species (ROS) were assessed using the cell membrane permeable dihydrorhodamine-123 (DHR-123) assay (D23806; ThermoFisher Scientific, Waltham, MA, USA) according to the manufacturer's instructions. Measurements were made after exposing human corneal epithelial cells to H2O2, astragaloside IV or DMSO for 2 hours. For ROS staining, cells were incubated with 10 µM DHR-123 for 15 minutes. Nucleus staining was performed using Hoechst 33342 nucleic acid stain (H1399; ThermoFisher Scientific, Waltham, MA, USA). Randomly, a minimum of 3 images of every treatment group were acquired with a 20x fluorescence objective using the aforementioned Axio Observer 7. Results were expressed in percent of fluorescence intensity relative to the baseline measurement in the DMSO control group. For quantification of the fluorescence signals, the microscope software ZEN 3.0 (Carl Zeiss AG, Jena, Germany) was used.

For `CC(C)(O)C1CCC(C)(C2C(O)CC3(C)C4CC(OC5OC(CO)C(O)C(O)C5O)C5C(C)(C)C(OC6OCC(O)C(O)C6O)CCC56CC46CCC23C)O1` [astragaloside IV, (2R,3R,4S,5S,6R)-2-(((2aR,3R,4R,5aS,7R,11aR)-4-hydroxy-3-((2R,5S)-5-(2-hydroxypropan-2-yl)-2-methyltetrahydrofuran-2-yl)-2a,5a,8,8-tetramethyl-9-(((2S,3R,4S,5R)-3,4,5-trihydroxytetrahydro-2H-pyran-2-yl)oxy)hexadecahydrocyclopenta[a]cyclopropa[e]phenanthren-7-yl)oxy)-6-(hydroxymethyl)tetrahydro-2H-pyran-3,4,5-triol], the viability at 1 µM ([1]; 1 µM with H2O2 100 µM, p = 0.0044 vs H2O2) was 91 ± 4%, the viability at 2.5 µM ([1]; 2.5 µM with H2O2 100 µM, p = 0.0002 vs H2O2) was 95 ± 6% and the speed of re-epithelialization [2] was “did not show any significant difference in the speed of re-epithelialization”. It also gave an activity at 1 µM ([3]; 1 µM, p = 0.0028, read-out: corneal epithelial cell proliferation) of 125 ± 26%, an activity at 2.5 µM ([3]; 2.5 µM, p = 0.0017, read-out: corneal epithelial cell proliferation) of 126 ± 30% and an activity at 5 µM ([3]; 5 µM, not significant, p > 0.9999, read-out: corneal epithelial cell proliferation) of 112 ± 14%. The “corneal epithelial cell migration (scratched hCEC area over time)” value [4] was “none of the treatment groups showed a significant decrease of corneal epithelial cell migration”, the viability at 1 µM ([5]; 1 µM, p < 0.0001) was 154 ± 33% and the viability at 2.5 µM ([5]; 2.5 µM, p < 0.0001) was 149 ± 27%. The viability at 5 µM ([5]; 5 µM, p = 0.0003) was 138 ± 22%, the viability at 10 µM ([5]; 10 µM, non-significant decrease, p > 0.9999) was 89 ± 5% and the activity at 1 µM ([6]; 1 µM with H2O2 100 µM) was 94 ± 7%. For the same compound, the activity at 2.5 µM ([6]; 2.5 µM with H2O2 100 µM) was 94 ± 15%.

Reference: patent EP4104817A1, “OPHTHALMIC COMPOSITION COMPRISING ASTRAGALOSIDE IV” (Skeye Pharma GbR, priority 2021, dated 2022)
